Molecular target: T1, KRas-G12D (Homo sapiens, UniProt P01116, G12D)
T1 construct: insert the HiBiT tag onto the N-terminus of one or more of the endogenous KRas alleles; host or cells: AsPC-1 HiBiT-KRasG12D knock-in clone (one tagged allele, two untagged KRasG12D alleles)
Assay: HiBiT Degradation Assay (G12D), AsPC-1 HiBiT-KRasG12D cells, 24 hr
Format: cell-based
Conditions: for DC50: AsPC-1 cells; for Dmax: ASPC1, AsPC-1 cells, maximum degradation observed
Outline: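 Degradation was read after 24 hr compound exposure (0.5% DMSO, 37° C) by Nano-Glo HiBiT lytic luminescence in AsPC-1 cells carrying a HiBiT tag on one of three KRasG12D alleles. Signal relative to DMSO gave DC50 and Dmax by 4-parameter fit; alamar blue fluorescence monitored cytotoxicity.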

T1 sequence (P01116 1-188 isoform P01116-2 G12D): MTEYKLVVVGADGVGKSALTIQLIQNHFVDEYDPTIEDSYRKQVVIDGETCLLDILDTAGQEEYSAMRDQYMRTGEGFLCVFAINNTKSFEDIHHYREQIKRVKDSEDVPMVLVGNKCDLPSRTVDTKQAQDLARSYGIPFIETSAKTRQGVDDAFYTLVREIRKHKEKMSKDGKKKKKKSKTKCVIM

Compound: C#Cc1c(F)ccc2cc(O)cc(-c3ccc4c(N5CC6CCC(C5)N6)nc(OCCN5CCN(CC6CCN(CC7CCN(c8ccc9c(c8)n(C)c(=O)n9C8CCC(=O)NC8=O)CC7)CC6)CC5(C)C)nc4c3F)c12 (stereo not drawn) [Compound 227]
- DC50: < 5.1 µM

Compound: C#Cc1c(F)ccc2cccc(-c3ncc4c(N5CC6CCC(C5)N6)nc(OCC5(CN6CCC(F)(CN7CCN(c8ccc9c(c8)n(C)c(=O)n9C8CCC(=O)NC8=O)CC7)CC6)CC5)nc4c3F)c12 (stereo not drawn) [Compound 228, 3-[5-[4-[[1-[[1-[[4-(3,8-diazabicyclo[3.2.1]octan-3-yl)-7-(8-ethynyl-7-fluoro-1-naphthyl)-8-fluoro-pyrido[4,3-d]pyrimidin-2-yl]oxymethyl]cyclopropyl]methyl]-4-fluoro-4-piperidyl]methyl]piperazin-1-yl]-3-methyl-2-oxo-benzimidazol-1-yl]piperidine-2,6-dione]
- DC50: < 5.1 µM

Compound: C#Cc1c(F)ccc2cc(O)cc(-c3ncc4c(N5CC6CCC(C5)N6)nc(OCC5(CN6CCC(CC7CCN(CC8CN(c9ccc%10c(c9)n(C)c(=O)n%10C9CCC(=O)NC9=O)C8)CC7)CC6)CC5)nc4c3F)c12 (stereo not drawn) [Compound 229, 3-[5-[3-[[4-[[1-[[1-[[4-(3,8-diazabicyclo[3.2.1]octan-3-yl)-7-(8-ethynyl-7-fluoro-3-hydroxy-1-naphthyl)-8-fluoro-pyrido[4,3-d]pyrimidin-2-yl]oxymethyl]cyclopropyl]methyl]-4-piperidyl]methyl]-1-piperidyl]methyl]azetidin-1-yl]-3-methyl-2-oxo-benzimidazol-1-yl]piperidine-2,6-dione]
- Dmax: > 70%
- DC50: < 5.1 µM

Compound: C#Cc1c(F)ccc2cc(O)cc(-c3ncc4c(N5CC6CCC(C5)N6)nc(CCCN5CCC(CC6CCN(CC7CCN(c8ccc9c(c8)n(C)c(=O)n9C8CCC(=O)NC8=O)CC7)CC6)CC5)nc4c3F)c12 (stereo not drawn) [Compound 230, 3-[5-[4-[[4-[[1-[3-[4-(3,8-diazabicyclo[3.2.1]octan-3-yl)-7-(8-ethynyl-7-fluoro-3-hydroxy-1-naphthyl)-8-fluoro-pyrido[4,3-d]pyrimidin-2-yl]propyl]-4-piperidyl]methyl]-1-piperidyl]methyl]-1-piperidyl]-3-methyl-2-oxo-benzimidazol-1-yl]piperidine-2,6-dione]
- DC50: < 5.1 µM

Compound: C#Cc1c(F)ccc2cc(O)cc(-c3ccc4c(N5CC6CCC(C5)N6)nc(OCCN5CCC(CN6CCC(CC7CCN(c8ccc9c(c8F)n(C)c(=O)n9C8CCC(=O)NC8=O)CC7)CC6)CC5)nc4c3F)c12 (stereo not drawn) [Compound 231]
- Dmax: > 70%
- DC50: < 5.1 µM

Compound: C#Cc1c(F)ccc2cc(O)cc(-c3ccc4c(N5CC6CCC(C5)N6)nc(OCCN5CCC(CC6CCN(CC7CCN(c8ccc9c(c8F)n(C)c(=O)n9C8CCC(=O)NC8=O)CC7)CC6)CC5)nc4c3F)c12 (stereo not drawn) [Compound 232]
- Dmax: > 70%
- DC50: < 5.1 µM

Compound: C#Cc1c(F)ccc2cc(O)cc(-c3ccc4c(N5CC6CCC(C5)N6)nc(OCCN5CCC(CN6CCC(CC7CCN(c8ccc9c(c8)n(C)c(=O)n9C8CCC(=O)NC8=O)CC7)CC6)CC5)nc4c3F)c12 (stereo not drawn) [Compound 233]
- Dmax: > 70%
- DC50: < 5.1 µM

Compound: C#Cc1c(F)ccc2cccc(-c3ncc4c(N5CC6CCC(C5)N6)nc(OC[C@@]56CCCN5[C@H](CN5CCN(CC7CCN(c8ccc9c(c8)n(C)c(=O)n9C8CCC(=O)NC8=O)CC7)CC5)CC6)nc4c3F)c12 (stereo partly drawn) [Compound 234]
- Dmax: > 70%
- DC50: < 5.1 µM

Compound: C#Cc1c(F)ccc2cc(O)cc(-c3ncc4c(N5CC6CCC(C5)N6)nc(N5CC[C@@H](N6CCC(CC7CCN(c8ccc9c(c8)n(C)c(=O)n9C8CCC(=O)NC8=O)CC7)CC6)C5)nc4c3F)c12 (stereo partly drawn) [Compound 236, 3-[5-[4-[[1-[(3R)-1-[4-(3,8-diazabicyclo[3.2.1]octan-3-yl)-7-(8-ethynyl-7-fluoro-3-hydroxy-1-naphthyl)-8-fluoro-pyrido[4,3-d]pyrimidin-2-yl]pyrrolidin-3-yl]-4-piperidyl]methyl]-1-piperidyl]-3-methyl-2-oxo-benzimidazol-1-yl]piperidine-2,6-dione]
- Dmax: > 70%
- DC50: < 5.1 µM

Compound: C#Cc1c(F)ccc2cc(O)cc(-c3ccc4c(N5CC6CCC(C5)N6)nc(OCCN5CCC(CC6CCN(CC7CCN(c8ccc9c(c8)n(C)c(=O)n9C8CCC(=O)NC8=O)CC7)CC6)CC5)nc4c3F)c12 (stereo not drawn) [Compound 237]
- Dmax: > 70%
- DC50: < 5.1 µM

Compound: C#Cc1c(F)ccc2cccc(-c3ncc4c(N5CC6CCC(C5)N6)nc(OC[C@@]56CCCN5[C@H](CN5CCN(CC7CCN(c8ccc9c(c8F)CN(C8CCC(=O)NC8=O)C9=O)CC7)CC5)CC6)nc4c3F)c12 (stereo partly drawn) [Compound 238]
- Dmax: > 70%
- DC50: < 5.1 µM

Compound: C#Cc1c(F)ccc2cc(O)cc(-c3ncc4c(N5CC6CCC(C5)N6)nc(OCCN5CCC(CN6CCN(CC7CCN(c8ccc9c(c8F)CN(C8CCC(=O)NC8=O)C9=O)CC7)CC6(C)C)CC5)nc4c3F)c12 (stereo not drawn) [Compound 239, 3-[5-[4-[[4-[[1-[2-[4-(3,8-diazabicyclo[3.2.1]octan-3-yl)-7-(8-ethynyl-7-fluoro-3-hydroxy-1-naphthyl)-8-fluoro-pyrido[4,3-d]pyrimidin-2-yl]oxyethyl]-4-piperidyl]methyl]-3,3-dimethyl-piperazin-1-yl]methyl]-1-piperidyl]-4-fluoro-1-oxo-isoindolin-2-yl]piperidine-2,6-dione]
- Dmax: > 70%
- DC50: < 5.1 µM

From patent publication US12448399B2, “Cereblon-based KRAS degrading PROTACs and uses related thereto” (Arvinas Operations, Inc., priority 2023, dated 2025)
